Read-outs that look alike come from different tables or passages of the source.
Tests used:
water flea [1] = conditions: for change of heart rate (final RHR) relative to the original heart rate (OHR) / decrease of heart rate (final RHR) relative to the original heart rate (OHR): FIG. 7 (C); for decrease of heart rate (final RHR) relative to the original heart rate (OHR): normalized for initial RHR; for relaxation heart rate (RHR) 0 hr / relaxation heart rate (RHR) 24 hr: average ± SD; for RHR normalization relative to 0 hr: 24 hr relative to 0 hr; for heart rate decrease after 24 hours (normalized average RHR): FIG. 8 (B),(C)
Method: In the individual response evaluation apparatus, an extra-axial digital holography method was used to take a hologram of the water flea with a CCD camera.
The heart rate of the water flea was analyzed by the reconstructed time-resolved phase distributions, from the heart rate signal obtained by the method.
A Fourier spectrum method was used for evaluating periodic characteristics in heart rate analysis. In (C) of FIG. 5, a one-dimensional Fourier spectrum method was used for each pixel of 1000 frame sets to calculate a two-dimensional frequency distribution of the water flea.
2 hours after the observation, 19 mL of hydrogen peroxide having concentrations of 0.00 mM, 0.03 mM, and 0.06 mM, respectively was each mixed for each experiment to perform the experiment repeatedly so that the water flea is exposed to the hydrogen peroxide. At this time, in a negative control group of 0.00 mM treatment, 10 mL of an M4 medium was further mixed for unifying volume.
Upon observation, the heart rate analysis was performed by dividing the section into those before and after exposure to hydrogen peroxide.
In order to express the heart rate trend of (B) of FIG. 7, in (A) of FIG. 7, an original heart rate (OHR) was flattened every 30 minutes by a moving average method.

water flea [2] = conditions: 0.06 mM-treated test group versus 0.03 mM-treated group; FIG. 8 (d)
[3] = 0.03 mM hydrogen peroxide, Group (N=3)
[4] = 0.03 mM hydrogen peroxide, specimen #4
[5] = 0.03 mM hydrogen peroxide, specimen #5
[6] = 0.03 mM hydrogen peroxide, specimen #6
[7] = 0.06 mM hydrogen peroxide, Group (N=3)
[8] = 0.06 mM hydrogen peroxide, specimen #7
[9] = 0.06 mM hydrogen peroxide, specimen #8
[10] = 0.06 mM hydrogen peroxide, specimen #9

- RHR normalization relative to 0 hr (water flea [1]; [3]): 92.84 ± 5.60%
- RHR normalization relative to 0 hr (water flea [1]; [4]): 90.42 ± 4.74%
- RHR normalization relative to 0 hr (water flea [1]; [5]): 96.72 ± 1.78%
- RHR normalization relative to 0 hr (water flea [1]; [6]): 91.42 ± 6.94%
- RHR normalization relative to 0 hr (water flea [1]; [7]): 73.96 ± 5.61%
- RHR normalization relative to 0 hr (water flea [1]; [8]): 74.26 ± 4.33%
- RHR normalization relative to 0 hr (water flea [1]; [9]): 79.13 ± 3.88%
- RHR normalization relative to 0 hr (water flea [1]; [10]): 68.47 ± 1.93%
- reactive oxygen species (ROS) level, times higher than the 0.03 mM-treated group (water flea [2]): 7.8 times
Structure (SMILES): OO [hydrogen peroxide]
- change of heart rate (final RHR) relative to the original heart rate (OHR) (water flea [1]; 0.03 mM hydrogen peroxide): −13 BPM
- decrease of heart rate (final RHR) relative to the original heart rate (OHR) (water flea [1]; 0.03 mM hydrogen peroxide): 3.3%
- relaxation heart rate (RHR) 0 hr (water flea [1]; [3]): 366.81 ± 20.43 BPM
- relaxation heart rate (RHR) 24 hr (water flea [1]; [3]): 340.33 ± 21.98 BPM
- relaxation heart rate (RHR) 0 hr (water flea [1]; [4]): 363.22 ± 12.11 BPM
- relaxation heart rate (RHR) 24 hr (water flea [1]; [4]): 328.43 ± 18.01 BPM
- relaxation heart rate (RHR) 0 hr (water flea [1]; [5]): 350.78 ± 20.23 BPM
- relaxation heart rate (RHR) 24 hr (water flea [1]; [5]): 339.28 ± 6.54 BPM
- relaxation heart rate (RHR) 0 hr (water flea [1]; [6]): 486.43 ± 6.63 BPM
- relaxation heart rate (RHR) 24 hr (water flea [1]; [6]): 353.28 ± 27.98 BPM
- heart rate decrease after 24 hours (normalized average RHR) (water flea [1]; 0.03 mM-treated test group): 7.16%
- change of heart rate (final RHR) relative to the original heart rate (OHR) (water flea [1]; 0.06 mM hydrogen peroxide): −109 BPM
- decrease of heart rate (final RHR) relative to the original heart rate (OHR) (water flea [1]; 0.06 mM hydrogen peroxide): 22.7%
- relaxation heart rate (RHR) 0 hr (water flea [1]; [7]): 383.81 ± 12.99 BPM
- relaxation heart rate (RHR) 24 hr (water flea [1]; [7]): 279.05 ± 12.71 BPM
- relaxation heart rate (RHR) 0 hr (water flea [1]; [8]): 370.07 ± 25.38 BPM
- relaxation heart rate (RHR) 24 hr (water flea [1]; [8]): 274.82 ± 16.01 BPM
- relaxation heart rate (RHR) 0 hr (water flea [1]; [9]): 378.43 ± 15.41 BPM
- relaxation heart rate (RHR) 24 hr (water flea [1]; [9]): 299.47 ± 14.70 BPM
- relaxation heart rate (RHR) 0 hr (water flea [1]; [10]): 383.90 ± 13.02 BPM
- relaxation heart rate (RHR) 24 hr (water flea [1]; [10]): 262.87 ± 7.41 BPM
- heart rate decrease after 24 hours (normalized average RHR) (water flea [1]; 0.06 mM-treated test group): 25.97%
